From patent US20230348369A1 (Cytokinetics, Inc., priority 2020, published 2023)
Like-named read-outs stand apart in the source and are kept apart here.

Molecular target: human NAMPT (Homo sapiens, UniProt P43490)
Assay: Human recombinant enzyme assay (NMN fluorescence biochemical assay, activation of NAMPT)
In short: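 NMN production is detected fluorometrically (Ex 355/Em 460 nm) 40 min after acetophenone, KOH and formic acid derivatization. Reactions ran 60 min at ambient temperature: 6 nM human NAMPT, nicotinamide 150 μM, PRPP 20 μM, ATP 2.5 mM, buffered at pH 7.2 with 50 mM HEPES plus DTT, CHAPS, NaCl and 100 mM MgCl2.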

[1] = Table A, human recombinant NAMPT, NMN formation, 60 min
[2] = Table A, human recombinant NAMPT, NMN formation, 60 min, read-out: EC50 Human

human NAMPT, sequence (P43490 whole entry): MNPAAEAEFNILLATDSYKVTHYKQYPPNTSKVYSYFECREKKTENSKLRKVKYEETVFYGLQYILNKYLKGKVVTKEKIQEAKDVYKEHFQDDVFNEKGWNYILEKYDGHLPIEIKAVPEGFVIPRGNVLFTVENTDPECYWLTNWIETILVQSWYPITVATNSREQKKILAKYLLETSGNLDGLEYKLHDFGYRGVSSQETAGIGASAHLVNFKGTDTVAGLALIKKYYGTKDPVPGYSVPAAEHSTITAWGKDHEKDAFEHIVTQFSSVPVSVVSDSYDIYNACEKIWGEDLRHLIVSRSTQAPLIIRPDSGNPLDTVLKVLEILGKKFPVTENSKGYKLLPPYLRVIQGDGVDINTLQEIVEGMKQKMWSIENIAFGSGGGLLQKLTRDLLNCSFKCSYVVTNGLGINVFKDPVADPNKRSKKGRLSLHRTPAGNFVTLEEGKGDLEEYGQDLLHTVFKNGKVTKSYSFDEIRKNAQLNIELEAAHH

CN1CCN(CC2CC3(C2)CC(NC(=O)NCc2ccc(Cl)cc2)C3)CC1=O (centres unmarked) [Compound 238, 1-(4-chlorobenzyl)-3-(6-((4-methyl-3-oxopiperazin-1-yl)methyl)spiro[3.3]heptan-2-yl)urea]
AC1.4 Human [1]: 3.4 µM
EC50 [2]: 20.3 µM

O=C(NCc1ccc(Cl)cc1)NC1CC2(CC(CN3CCC[C@@H]3c3cccnc3)C2)C1 (stereo partly drawn) [Compound 239, (R)-1-(4-chlorobenzyl)-3-(6-((2-(pyridin-3-yl)pyrrolidin-1-yl)methyl)spiro[3.3]heptan-2-yl)urea]
AC1.4 Human [1]: 2.1 µM
EC50 [2]: 22.5 µM

Cc1ccc(C(=O)NCC2CC3(C2)CC(NC(=O)NCc2ccc(Cl)cc2)C3)cn1 (centres unmarked) [Compound 240, N-((6-(3-(4-chlorobenzyl)ureido)spiro[3.3]heptan-2-yl)methyl)-6-methylnicotinamide]
AC1.4 Human [1]: 0.9 µM
EC50 [2]: 3 µM

CC1CCC(=O)N1CC1CC2(C1)CC(NC(=O)NCc1ccc(Cl)cc1)C2 (centres unmarked) [Compound 241, 1-(4-chlorobenzyl)-3-(6-((2-methyl-5-oxopyrrolidin-1-yl)methyl)spiro[3.3]heptan-2-yl)urea]
AC1.4 Human [1]: 2.7 µM
EC50 [2]: 5.7 µM

O=C(NCc1ccc(Cl)cc1)NC1CC2(CC(Cn3nncc3-c3ccccc3)C2)C1 (centres unmarked) [Compound 242, 1-(4-chlorobenzyl)-3-(6-((5-phenyl-1H-1,2,3-triazol-1-yl)methyl)spiro[3.3]heptan-2-yl)urea]
AC1.4 Human [1]: 3.6 µM
EC50 [2]: 0.8 µM

O=C(NCc1ccc(Cl)cc1)NC1CC2(CC(CNC(=O)C3CCS(=O)(=O)CC3)C2)C1 (centres unmarked) [Compound 243, N-((6-(3-(4-chlorobenzyl)ureido)spiro[3.3]heptan-2-yl)methyl)tetrahydro-2H-thiopyran-4-carboxamide 1,1-dioxide]
AC1.4 Human [1]: 1.5 µM
EC50 [2]: 4.2 µM

CC1CCN(CC2CC3(C2)CC(NC(=O)NCc2ccc(Cl)cc2)C3)C1=O (centres unmarked) [Compound 244, 1-(4-chlorobenzyl)-3-(6-((3-methyl-2-oxopyrrolidin-1-yl)methyl)spiro[3.3]heptan-2-yl)urea]
AC1.4 Human [1]: 3.4 µM
EC50 [2]: 7.3 µM

Cc1cccc(C(=O)NCC2CC3(C2)CC(NC(=O)NCc2ccc(Cl)cc2)C3)n1 (centres unmarked) [Compound 245, N-((6-(3-(4-chlorobenzyl)ureido)spiro[3.3]heptan-2-yl)methyl)-6-methylpicolinamide]
EC50: 4.9 µM
AC1.4 Human [1]: 3.1 µM

Cc1cc(C(=O)NCC2CC3(C2)CC(NC(=O)NCc2ccc(Cl)cc2)C3)ccn1 (centres unmarked) [Compound 246, N-((6-(3-(4-chlorobenzyl)ureido)spiro[3.3]heptan-2-yl)methyl)-2-methylisonicotinamide]
AC1.4 Human [1]: 2.1 µM
EC50 [2]: 4.2 µM

O=C(NCc1ccc(Cl)cc1)NC1CC2(CC(CNC(=O)c3cn[nH]c3)C2)C1 (centres unmarked) [Compound 247, N-((6-(3-(4-chlorobenzyl)ureido)spiro[3.3]heptan-2-yl)methyl)-1H-pyrazole-4-carboxamide]
AC1.4 Human [1]: 2.8 µM
EC50 [2]: 7.9 µM

Cc1ccc(C(=O)N(C)CC2CC3(C2)CC(NC(=O)NCc2ccc(Cl)cc2)C3)cn1 (centres unmarked) [Compound 248, N-((6-(3-(4-chlorobenzyl)ureido)spiro[3.3]heptan-2-yl)methyl)-N,6-dimethylnicotinamide]
AC1.4 Human [1]: 5.0 µM
EC50 [2]: 6.6 µM

O=C(NCc1ccc(Cl)cc1)NC1CC2(CC(CNC(=O)C3CCOCC3)C2)C1 (centres unmarked) [Compound 250, N-((6-(3-(4-chlorobenzyl)ureido)spiro[3.3]heptan-2-yl)methyl)tetrahydro-2H-pyran-4-carboxamide]
AC1.4 Human [1]: 1.8 µM
EC50 [2]: 7.7 µM

O=C(NCc1ccc(Cl)cc1)NC1CC2(CC(CNC(=O)C3CCCC3)C2)C1 (centres unmarked) [Compound 251, N-((6-(3-(4-chlorobenzyl)ureido)spiro[3.3]heptan-2-yl)methyl)cyclopentanecarboxamide]
AC1.4 Human [1]: 2.6 µM
EC50 [2]: 6.1 µM

O=C1CC(C(=O)NCC2CC3(C2)CC(NC(=O)NCc2ccc(Cl)cc2)C3)CCN1 (centres unmarked) [Compound 252, N-((6-(3-(4-chlorobenzyl)ureido)spiro[3.3]heptan-2-yl)methyl)-2-oxopiperidine-4-carboxamide]
AC1.4 Human [1]: 2.8 µM
EC50 [2]: 9.1 µM

CC(C1CC2(CC(NC(=O)NCc3ccc(Cl)cc3)C2)C1)N1CCN(C)C(=O)C1 (centres unmarked) [Compound 253, 1-(4-chlorobenzyl)-3-(6-(1-(4-methyl-3-oxopiperazin-1-yl)ethyl)spiro[3.3]heptan-2-yl)urea]
AC1.4 Human [1]: 3.2 µM
EC50 [2]: 5.5 µM

CN1CCN(CC2CC3(C2)CC(NC(=O)NCc2ccc(Cl)cc2)C3)C(c2ccccc2)C1 (centres unmarked) [Compound 254, 1-(4-chlorobenzyl)-3-(6-((4-methyl-2-phenylpiperazin-1-yl)methyl)spiro[3.3]heptan-2-yl)urea]
AC1.4 Human [1]: 1.5 µM
EC50 [2]: 2.3 µM

Cc1ccc(C(=O)NC(C)C2CC3(CC(NC(=O)NCc4ccc(Cl)cc4)C3)C2)cn1 (centres unmarked) [Compound 255, N-(1-(6-(3-(4-chlorobenzyl)ureido)spiro[3.3]heptan-2-yl)ethyl)-6-methylnicotinamide]
AC1.4 Human [1]: 2.5 µM
EC50 [2]: 6.5 µM

O=C(CCCCCNC(=O)NCc1ccc(Cl)cc1)NC1CCCCC1 [Compound 257, 6-(3-(4-chlorobenzyl)ureido)-N-cyclohexylhexanamide]
AC1.4 Human [1]: 2.7 µM
EC50 [2]: 17.9 µM

O=C(CCCCCNC(=O)NCc1ccc(Cl)cc1)NC1CCCC1 [Compound 258, 6-(3-(4-chlorobenzyl)ureido)-N-cyclopentylhexanamide]
AC1.4 Human [1]: 3.8 µM
EC50 [2]: 23.1 µM

O=C(NCCCCCC(=O)N1CCOCC1)NCc1ccc(Cl)cc1 [Compound 259, 1-(4-chlorobenzyl)-3-(6-morpholine-6-oxohexyl)urea]
AC1.4 Human [1]: 8.6 µM
EC50 [2]: 59.4 µM

CC(C)(C)CN1CCN(C(=O)CCCCCNC(=O)NCc2ccc(Cl)cc2)CC1 [Compound 260, 1-(4-chlorobenzyl)-3-(6-(4-neopentylpiperazin-1-yl)-6-oxohexyl)urea]
AC1.4 Human [1]: 2.0 µM
EC50 [2]: 17.5 µM

CC(C)(O)CN1CCN(C(=O)CCCCCNC(=O)NCc2ccc(Cl)cc2)CC1 [Compound 261, 1-(4-chlorobenzyl)-3-(6-(4-(2-hydroxy-2-methylpropyl)piperazin-1-yl)-6-oxohexyl)urea]
AC1.4 Human [1]: 2.8 µM
EC50 [2]: 42.9 µM

Cc1ccccc1NC(=O)CCCCCNC(=O)NCc1ccc(Cl)cc1 [Compound 262, 6-(3-(4-chlorobenzyl)ureido)-N-(o-tolyl)hexanamide]
AC1.4 Human [1]: 0.6 µM
EC50 [2]: 4.9 µM

O=C(CCCCCNC(=O)NCc1ccc(Cl)cc1)Nc1ccncc1 [Compound 263, 6-(3-(4-chlorobenzyl)ureido)-N-(pyridin-4-yl)hexanamide]
AC1.4 Human [1]: 1.4 µM
EC50 [2]: 10.2 µM

Cc1cccc(N(C)C(=O)CCCCCNC(=O)NCc2ccc(Cl)cc2)c1 [Compound 264, 6-(3-(4-chlorobenzyl)ureido)-N-methyl-N-(m-tolyl)hexanamide]
AC1.4 Human [1]: 1.0 µM
EC50 [2]: 6.7 µM

CN(C(=O)CCCCCNC(=O)NCc1ccc(Cl)cc1)c1ccncc1 [Compound 265, 6-(3-(4-chlorobenzyl)ureido)-N-methyl-N-(pyridin-4-yl)hexanamide]
AC1.4 Human [1]: 0.8 µM
EC50 [2]: 1.6 µM

Cc1ccccc1N(C)C(=O)CCCCCNC(=O)NCc1ccc(Cl)cc1 [Compound 266, 6-(3-(4-chlorobenzyl)ureido)-N-methyl-N-(o-tolyl)hexanamide]
AC1.4 Human [1]: 0.5 µM
EC50 [2]: 1.8 µM

Cc1cccc(CN(C)C(=O)CCCCCNC(=O)NCc2ccc(Cl)cc2)c1 [Compound 267, 6-(3-(4-chlorobenzyl)ureido)-N-methyl-N-(3-methylbenzyl)hexanamide]
AC1.4 Human [1]: 2.0 µM
EC50 [2]: 7.9 µM

CN(Cc1ccccc1)C(=O)CCCCCNC(=O)NCc1ccc(Cl)cc1 [Compound 269, N-benzyl-6-(3-(4-chlorobenzyl)ureido)-N-methylhexanamide]
AC1.4 Human [1]: 0.7 µM
EC50 [2]: 5.1 µM

CN(C(=O)CCCCCNC(=O)NCc1ccc(Cl)cc1)c1cccnc1 [Compound 270, 6-(3-(4-chlorobenzyl)ureido)-N-methyl-N-(pyridin-3-yl)hexanamide]
AC1.4 Human [1]: 1.1 µM
EC50 [2]: 3.9 µM

CN(C(=O)CCCCCNC(=O)NCc1ccc(Cl)cc1)c1ccccn1 [Compound 271, 6-(3-(4-chlorobenzyl)ureido)-N-methyl-N-(pyridin-2-yl)hexanamide]
AC1.4 Human [1]: 0.9 µM
EC50 [2]: 3.7 µM

O=C(CCCCCNC(=O)NCc1ccc(Cl)cc1)Nc1ccccc1F [Compound 272, 6-(3-(4-chlorobenzyl)ureido)-N-(2-fluorophenyl)hexanamide]
AC1.4 Human [1]: 0.9 µM
EC50 [2]: 2.6 µM

O=C(CCCCCNC(=O)NCc1ccc(Cl)cc1)Nc1ccccc1-c1ccccc1 [Compound 273, N-([1,1′-biphenyl]-2-yl)-6-(3-(4-chlorobenzyl)ureido)hexanamide]
AC1.4 Human [1]: 0.9 µM
EC50 [2]: 0.3 µM

CN(C(=O)CCCCCNC(=O)NCc1ccc(Cl)cc1)c1ccccc1F [Compound 274, 6-(3-(4-chlorobenzyl)ureido)-N-(2-fluorophenyl)-N-methylhexanamide]
AC1.4 Human [1]: 1.9 µM
EC50 [2]: 0.3 µM

Cc1ccccc1C(=O)NCCCCCNC(=O)NCc1ccc(Cl)cc1 [Compound 275, N-(5-(3-(4-chlorobenzyl)ureido)pentyl)-2-methylbenzamide]
AC1.4 Human [1]: 1.9 µM
EC50 [2]: 11.4 µM

Cc1cccc(C(=O)NCCCCCNC(=O)NCc2ccc(Cl)cc2)c1 [Compound 276, N-(5-(3-(4-chlorobenzyl)ureido)pentyl)-3-methylbenzamide]
AC1.4 Human [1]: 1.5 µM
EC50 [2]: 9.5 µM

O=C(NCCCCCNC(=O)c1cccnc1)NCc1ccc(Cl)cc1 [Compound 277, N-(5-(3-(4-chlorobenzyl)ureido)pentyl)nicotinamide]
AC1.4 Human [1]: 3.2 µM
EC50 [2]: 6.9 µM
